Source: patent publication US9133217B2 (Salix Pharmaceuticals, Ltd, priority 2011, dated 2015)
Entries after “also recorded” stand apart in the source; their conditions may differ. Where two headings read alike, the source gives them in different places.

How the values were obtained:
Format in all cases: physicochemical
[1] = Stressing under various relative humidities / temperature and vacuum, resulting solid form by XRPD
Procedure: The jar was sealed and stored at either ambient temperature or in an oven at elevated temperature.
(§1) X-ray powder diffraction (XRPD) analyses were performed using an Inel XRG-3000 diffractometer equipped with a CPS (Curved Position Sensitive) detector with a […] of 120°. Real time data were collected using Cu—Kα radiation. The tube voltage and amperage were set to 40 kV and 30 mA, respectively. The monochromator slit was set at 1-5 mm by 160 μm. […] Samples were prepared for analysis by packing them into thin-walled glass capillaries. Each capillary was mounted onto a goniometer head that is motorized to permit spinning of the capillary during data acquisition. The samples were analyzed for 300 seconds. Instrument calibration was performed using a silicon reference standard.
Samples were also analyzed using a PANalytical X'Pert Pro diffractometer. The specimen was analyzed using Cu radiation produced using an Optix long fine-focus source. An elliptically graded multilayer mirror was used to focus the Cu K α X-rays of the source through the specimen and onto the detector. The specimen was sandwiched between 3-micron thick films, analyzed in transmission geometry, and rotated to optimize orientation statistics. A beam-stop and a helium purge were used to minimize the background generated by air scattering. Soller slits were used for the incident and diffracted beams to minimize axial divergence. Diffraction patterns were collected using a scanning position-sensitive detector (X'Celerator) located 240 mm from the specimen […] a silicon specimen (NIST standard reference material 640c) was analyzed to verify the position of the silicon 111 peak.

[2] = Moisture sorption/desorption (dynamic vapor sorption, DVS); details: for weight gain from 5 to 95% RH / weight gain (adsorption) from 5 to 95% RH: sorption 5 to 95% RH; for hygroscopicity (in words): from moisture sorption/desorption; for Post-DVS XRPD (solid form after moisture sorption): specimen after DVS cycle 5-95-5% RH
Procedure: Automated vapor sorption (VS) data were collected on a VTI SGA-100 Vapor Sorption Analyzer. NaCl and PVP were used as calibration standards. Samples were not dried prior to analysis. Sorption and desorption data were collected over a range from 5 to 95% RH at 10% RH increments under a nitrogen purge. The equilibrium criterion used for analysis was less than 0.0100% weight change in 5 minutes with a maximum equilibration time of 3 hours. Data were not corrected for the initial moisture content of the samples.
Moisture sorption/desorption data were collected on a VTI SGA-100 Vapor Sorption Analyzer. Sorption and desorption data were collected over a range of 5% to 95% relative humidity (RH) at 10% RH intervals under a nitrogen purge. Samples were not dried prior to analysis. Equilibrium criteria used for analysis were less than 0.0100% weight change in 5 minutes, with a maximum equilibration time of 3 hours if the weight criterion was not met. Data were not corrected for the initial moisture content of the samples. NaCl and PVP were used as calibration standards.

[3] = Rifaximin drying experiments, resulting solid form by XRPD
Procedure: as §1

CO[C@H]1/C=C/O[C@@]2(C)Oc3c(C)c(O)c4c(O)c(c5c(nc6cc(C)ccn65)c4c3C2=O)NC(=O)/C(C)=C\C=C\[C@H](C)[C@H](O)[C@@H](C)[C@@H](O)[C@@H](C)[C@H](OC(C)=O)[C@@H]1C [α, Rifaximin, reference compound]
XRPD Form after stressing ([1]; P205, 4 days, room temperature): α dry

CO[C@H]1/C=C/O[C@@]2(C)Oc3c(C)c(O)c4c(O)c(c5c(nc6cc(C)ccn65)c4c3C2=O)NC(=O)/C(C)=C\C=C\[C@H](C)[C@H](O)[C@@H](C)[C@@H](O)[C@@H](C)[C@H](OC(C)=O)[C@@H]1C [Form Gamma, Rifaximin, reference compound]
weight loss from 95 to 5% RH ([2]; DVS, desorption 95 to 5% RH, listed as Rifaximin Form Gamma): 11.7%
initial weight loss upon equilibration at 5% RH ([2]; DVS, equilibration at 5% RH, listed as Rifaximin Form Gamma): 2.4%
weight gain from 5 to 95% RH ([2]; DVS, listed as Rifaximin Form Gamma): 10.8%
hygroscopicity (in words) ([2]; listed as Rifaximin Form Gamma): hygroscopic
XRPD Form after drying ([3]; vac oven / under vacuum, ambient, 1 day, listed as Form γ): remained unchanged

CO[C@H]1/C=C/O[C@@]2(C)Oc3c(C)c(O)c4c(O)c(c5c(nc6cc(C)ccn65)c4c3C2=O)NC(=O)/C(C)=C\C=C\[C@H](C)[C@H](O)[C@@H](C)[C@@H](O)[C@@H](C)[C@H](OC(C)=O)[C@@H]1C [Form Zeta, Rifaximin]
XRPD Form after drying ([3]; air dry): γ
XRPD Form after drying ([3]; open vial in hood): γ
XRPD Form after storage ([3]; stored in refrigerator 3 weeks): ζ
XRPD Form after drying ([3]; vac dry): γ + η
XRPD Form after drying ([3]; vac oven / under vacuum, ambient, 1 day): Form η
XRPD Form after drying ([3]; vac oven / under vacuum, ambient, 1 day, listed as ζ): η
XRPD Form after drying ([3]; vac oven, 40° C., 1 day): remained unchanged
XRPD Form after drying ([3]; vac oven, 45° C., 2 days): η
XRPD Form after stressing ([1]; 43% RH, 3 days, room temperature): conversion to Form γ
XRPD Form after stressing ([1]; 43% RH, 3 days, room temperature, listed as Form ζ): conversion to Form γ
XRPD Form after stressing ([1]; 43% RH, 3 days, room temperature, listed as ζ): γ
form after exposure to humidity (XRPD) ([1]; 51% RH (RT), ~20 min): converts to Form Mu
form after exposure to humidity (XRPD) ([1]; 51% RH (RT), ~20 min, listed as ζ): μ
XRPD Form after stressing ([1]; 58% RH, 3 days, room temperature, listed as ζ): ζ
XRPD Form after stressing ([1]; 75% RH, 3 days, room temperature, listed as ζ): ζ
XRPD Form after stressing ([1]; 94% RH, 3 days, room temperature, listed as Form ζ): Form γ+γ−1
XRPD Form after stressing ([1]; 94% RH, 3 days, room temperature, listed as ζ): β + ζ
XRPD Form after stressing ([1]; stability chamber 75% RH @40° C., 1 day): ζ + Y

CO[C@H]1/C=C/O[C@@]2(C)Oc3c(C)c(O)c4c(O)c(c5c(nc6cc(C)ccn65)c4c3C2=O)NC(=O)/C(C)=C\C=C\[C@H](C)[C@H](O)[C@@H](C)[C@@H](O)[C@@H](C)[C@H](OC(C)=O)[C@@H]1C [Form Mu, Rifaximin]
weight loss from 95 to 5% RH ([2]; DVS, desorption 95 to 5% RH, listed as rifaximin Form μ): 9.3%
initial weight loss upon equilibration at 5% RH ([2]; DVS, equilibration at 5% RH, listed as rifaximin Form μ): 11.0%
weight gain from 5 to 95% RH ([2]; DVS, listed as rifaximin Form μ): 9.5%
% wt lost from 95%-5% RH ([2]; moisture balance, desorption): 9.3 % wt lost from 95%-5% RH
% wt change upon equilibration at 5% RH ([2]; moisture balance, equilibration at 5% RH, signed change): −11.0 % wt change upon equilibration at 5% RH
% wt gain from 5%-95% RH ([2]; moisture balance, sorption): 9.5 % wt gain from 5%-95% RH
Post-DVS XRPD (solid form after moisture sorption) ([2]; listed as Rifaximin Form Mu): Form γ
Post-DVS XRPD (solid form after moisture sorption) ([2]; listed as rifaximin Form μ): converted to Form Gamma
XRPD result after stress ([1]; 59-62° C./Vacuum, ~24 hours): γ
XRPD result after stress ([1]; 60° C./Vacuum, ~24 hours, listed as Form μ): irreversibly desolvates to Form Gamma; also recorded: irreversibly desolvates to Form γ
XRPD result after stress ([1]; 60° C./Vacuum, ~24 hours, listed as Rifaximin Form μ): γ
XRPD result after stress ([1]; 97% RH (RT), 16 days, listed as Form μ): converted to Form Beta
XRPD result after stress ([1]; 97% RH (RT), 16 days, listed as Rifaximin Form μ): μ + β

CO[C@H]1/C=C/O[C@@]2(C)Oc3c(C)c(O)c4c(O)c(c5c(nc6cc(C)ccn65)c4c3C2=O)NC(=O)/C(C)=C\C=C\[C@H](C)[C@H](O)[C@@H](C)[C@@H](O)[C@@H](C)[C@H](OC(C)=O)[C@@H]1C [Form Eta, Rifaximin]
XRPD Form after drying ([3]; vac oven, 40° C., 1 day, listed as η): η

CO[C@H]1/C=C/O[C@@]2(C)Oc3c(C)c(O)c4c(O)c(c5c(nc6cc(C)ccn65)c4c3C2=O)NC(=O)/C(C)=C\C=C\[C@H](C)[C@H](O)[C@@H](C)[C@@H](O)[C@@H](C)[C@H](OC(C)=O)[C@@H]1C [Form Pi, Rifaximin]
weight lost from 95 to 5% RH ([2]; DVS, desorption 95 to 5% RH): 11.3 wt % lost from 95 to 5% RH
weight loss from 95 to 5% RH ([2]; DVS, desorption 95 to 5% RH, listed as Rifaximin Form Pi): 11.3%
initial weight loss at 5% RH upon equilibration ([2]; DVS, equilibration at 5% RH): 1.3 wt %
wt % change on equilibration at 5% RH ([2]; DVS, equilibration at 5% RH, signed change): −1.3 wt % change on equilibration at 5% RH
weight gain (adsorption) from 5 to 95% RH ([2]; DVS, listed as Rifaximin Form Pi): 10.5 wt %
weight gain (adsorption) from 5 to 95% RH ([2]; DVS, listed as Rifaximin Pi): 10.5 wt % gain from 5 to 95% RH
hygroscopicity (in words) ([2]; listed as Rifaximin Form Pi): reversibly hygroscopic
Post-DVS XRPD (solid form after moisture sorption) ([2]; listed as Rifaximin Form Pi): Form Pi
Post-DVS XRPD (solid form after moisture sorption) ([2]; listed as Rifaximin Pi): Pi

CO[C@H]1/C=C/O[C@@]2(C)Oc3c(C)c(O)c4c(O)c(c5c(nc6cc(C)ccn65)c4c3C2=O)NC(=O)/C(C)=C\C=C\[C@H](C)[C@H](O)[C@@H](C)[C@@H](O)[C@@H](C)[C@H](OC(C)=O)[C@@H]1C [Form Xi, Rifaximin]
weight loss from 95 to 5% RH ([2]; DVS, desorption 95 to 5% RH, listed as rifaximin Form Xi): 10.5%
initial weight loss upon equilibration at 5% RH ([2]; DVS, equilibration at 5% RH, listed as rifaximin Form Xi): 7.2%
weight gain from 5 to 95% RH ([2]; DVS, listed as rifaximin Form Xi): 7.9%
Post-DVS XRPD (solid form after moisture sorption) ([2]; listed as rifaximin Form Xi): became disordered

CO[C@H]1/C=C/O[C@@]2(C)Oc3c(C)c(O)c4c(O)c(c5c(nc6cc(C)ccn65)c4c3C2=O)NC(=O)/C(C)=C\C=C\[C@H](C)[C@H](O)[C@@H](C)[C@@H](O)[C@@H](C)[C@H](OC(C)=O)[C@@H]1C [Form Theta, Rifaximin, reference compound]
form after exposure to humidity (XRPD) ([1]; 75% RH (40° C.), 6 hrs): μ + η
form after exposure to humidity (XRPD) ([1]; 75% RH (RT), 6 hrs): convert at least partially to Form μ
form after exposure to humidity (XRPD) ([1]; 75% RH (RT), 6 hrs, listed as Rifaximin Form Theta): convert to Form μ
form after exposure to humidity (XRPD) ([1]; 75% RH (RT), 6 hrs, listed as θ): μ + ι

CO[C@H]1/C=C/O[C@@]2(C)Oc3c(C)c(O)c4c(O)c(c5c(nc6cc(C)ccn65)c4c3C2=O)NC(=O)/C(C)=C\C=C\[C@H](C)[C@H](O)[C@@H](C)[C@@H](O)[C@@H](C)[C@H](OC(C)=O)[C@@H]1C [Form Omicron, Rifaximin]
wt % change on equilibration at 5% RH [2]: −15.0 wt % change on equilibration at 5% RH
initial weight loss at 5% RH upon equilibration ([2]; DVS, equilibration at 5% RH, listed as Rifaximin Form Omicron): ~15 wt %
Post-DVS XRPD (solid form after moisture sorption) ([2]; listed as Rifaximin Form Omicron): Form Iota with a significant amount of disorder

CO[C@H]1/C=C/O[C@@]2(C)Oc3c(C)c(O)c4c(O)c(c5c(nc6cc(C)ccn65)c4c3C2=O)NC(=O)/C(C)=C\C=C\[C@H](C)[C@H](O)[C@@H](C)[C@@H](O)[C@@H](C)[C@H](OC(C)=O)[C@@H]1C [α dry, Rifaximin, reference compound]
XRPD Form after stressing ([1]; 58% RH, 2 days, room temperature): β
XRPD Form after stressing ([1]; 75% RH, 2 days, room temperature): β
XRPD Form after stressing ([1]; 94% RH, 2 days, room temperature): β
